Measurements: patent publication US20260297081A1, “COMPOUNDS AND METHODS OF TREATING CANCERS” (Cullgen Inc., priority 2023, published 2026)

What was measured:
MCF7 cells = test: Anti-proliferation (viability) of MCF7 cells (Table 7, FIG. 2B); assay type: cell-based; conditions: Homo sapiens, MCF7, MCF7 cells, 3-6 days, 10-point serial dilution; read-out: GI IC50 in MCF-7
CDK4 = CDK4 (Homo sapiens, UniProt P11802+Q16531); test: CDK4 percentage degradation in Calu-1 cells (Table 6); assay type: cell-based; set-up: Cells that express cyclin D1-3 and CDK4/6 proteins were treated with heterobifunctional compounds; endogenous in cells; host or cells: Calu-1; conditions: 16 hours; for inhibition at 0.04 µM: 40 nM; for inhibition at 0.2 µM: 200 nM
Sequence of CDK4 (P11802 2-303 limits assumed): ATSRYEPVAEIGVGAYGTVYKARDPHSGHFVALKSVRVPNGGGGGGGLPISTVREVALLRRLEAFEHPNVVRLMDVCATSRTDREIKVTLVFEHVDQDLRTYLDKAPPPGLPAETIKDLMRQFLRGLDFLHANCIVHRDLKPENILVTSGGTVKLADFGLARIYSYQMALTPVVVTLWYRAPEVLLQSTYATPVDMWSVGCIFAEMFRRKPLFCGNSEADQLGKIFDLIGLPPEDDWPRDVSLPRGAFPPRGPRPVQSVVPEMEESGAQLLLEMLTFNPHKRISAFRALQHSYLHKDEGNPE
Sequence of CDK4 (P24385 whole entry partner): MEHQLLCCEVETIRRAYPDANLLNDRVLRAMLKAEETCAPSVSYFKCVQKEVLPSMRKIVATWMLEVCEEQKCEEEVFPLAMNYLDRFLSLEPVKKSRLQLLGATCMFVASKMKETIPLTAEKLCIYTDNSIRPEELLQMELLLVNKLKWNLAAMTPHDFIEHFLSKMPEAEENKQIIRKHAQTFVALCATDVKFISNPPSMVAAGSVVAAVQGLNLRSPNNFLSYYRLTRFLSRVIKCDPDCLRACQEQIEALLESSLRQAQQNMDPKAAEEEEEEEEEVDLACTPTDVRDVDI
Sequence of CDK4 (Q16531 2-1140 limits assumed): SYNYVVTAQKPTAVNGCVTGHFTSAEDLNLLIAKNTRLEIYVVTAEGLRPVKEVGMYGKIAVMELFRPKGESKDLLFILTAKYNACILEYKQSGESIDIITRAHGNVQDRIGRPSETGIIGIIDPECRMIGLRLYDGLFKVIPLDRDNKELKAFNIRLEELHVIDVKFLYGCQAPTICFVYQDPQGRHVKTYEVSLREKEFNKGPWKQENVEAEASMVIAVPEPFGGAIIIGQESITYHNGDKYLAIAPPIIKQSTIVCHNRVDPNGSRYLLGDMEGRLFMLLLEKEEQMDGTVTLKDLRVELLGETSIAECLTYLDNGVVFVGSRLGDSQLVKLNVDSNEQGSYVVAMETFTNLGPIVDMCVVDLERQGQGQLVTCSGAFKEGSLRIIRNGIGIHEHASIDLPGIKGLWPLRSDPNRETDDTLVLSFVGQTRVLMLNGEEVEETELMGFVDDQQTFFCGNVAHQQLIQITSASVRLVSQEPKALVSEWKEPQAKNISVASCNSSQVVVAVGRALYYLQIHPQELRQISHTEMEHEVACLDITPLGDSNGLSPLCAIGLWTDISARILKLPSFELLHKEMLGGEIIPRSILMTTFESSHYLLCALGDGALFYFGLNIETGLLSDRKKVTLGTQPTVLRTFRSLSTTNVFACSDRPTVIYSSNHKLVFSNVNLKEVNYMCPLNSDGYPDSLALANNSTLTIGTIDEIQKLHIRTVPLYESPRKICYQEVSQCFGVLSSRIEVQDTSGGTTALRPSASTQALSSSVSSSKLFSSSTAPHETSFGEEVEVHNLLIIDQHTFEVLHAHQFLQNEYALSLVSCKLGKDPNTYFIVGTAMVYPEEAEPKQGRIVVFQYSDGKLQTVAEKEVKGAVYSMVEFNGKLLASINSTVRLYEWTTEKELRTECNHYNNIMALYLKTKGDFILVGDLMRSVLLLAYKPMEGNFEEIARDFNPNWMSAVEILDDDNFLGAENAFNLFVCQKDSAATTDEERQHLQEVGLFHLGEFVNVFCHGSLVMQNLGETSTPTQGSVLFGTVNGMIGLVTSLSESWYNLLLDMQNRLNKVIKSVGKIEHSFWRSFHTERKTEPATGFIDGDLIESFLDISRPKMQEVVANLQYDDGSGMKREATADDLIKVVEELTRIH
How it was run: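 Calu-1 cells exposed to heterobifunctional compounds at 40 nM or 200 nM for 16 h. Cyclin D1 and CDK4 levels measured by Western blot of RIPA lysates (BCA-normalised loading), bands quantified by densitometry and expressed as percentage degradation.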

| SMILES | IC50 (MCF7 cells) | inhibition at 0.04 µM (CDK4) | inhibition at 0.2 µM (CDK4) |
| --- | --- | --- | --- |
| [2H]C([2H])([2H])Nc1ccc(C(=O)Nc2ccc(N(C)C)nn2)c(NC2CC3(CC(NC(=O)CN4CCN(c5ccc(Nc6ncc7c(C)c(C(C)=O)c(=O)n(C8CCCC8)c7n6)nc5)CC4)C3)C2)n1 (stereo not shown) [CPD-241, 2-((6-(2-(4-(6-((6-acetyl-8-cyclopentyl-5-methyl-7-oxo-7,8-dihydropyrido[2,3-d]pyrimidin-2-yl)amino)pyridin-3-yl)piperazin-1-yl)acetamido)spiro[3.3]heptan-2-yl)amino)-N-(6-(dimethylamino)pyridazin-3-yl)-6-((methyl-d3)amino)nicotinamide] | 50 to 100 nM | 50 to 80% | 50 to 80% |
| [2H]C([2H])([2H])Nc1ccc(C(=O)Nc2ccc(N(C)C)nn2)c(NC2CCN(C(=O)CN3CCN(c4ccc(Nc5ncc6c(C)c(C(C)=O)c(=O)n(C7CCCC7)c6n5)nc4)CC3)CC2)n1 [CPD-250, 2-((1-(2-(4-(6-((6-acetyl-8-cyclopentyl-5-methyl-7-oxo-7,8-dihydropyrido[2,3-d]pyrimidin-2-yl)amino)pyridin-3-yl)piperazin-1-yl)acetyl)piperidin-4-yl)amino)-N-(6-(dimethylamino)pyridazin-3-yl)-6-((methyl-d3)amino)nicotinamide] | 50 to 100 nM | 30 to 50% | 50 to 80% |
| CNc1ccc(C(=O)Nc2ccc(N(C)C)nn2)c(NC2CCN(C(=O)CN3CCN(Cc4ccc(Nc5ncc6c(C)c(C(C)=O)c(=O)n(C7CCCC7)c6n5)nc4)CC3)CC2)n1 [CPD-300, 2-((1-(2-(4-((6-((6-acetyl-8-cyclopentyl-5-methyl-7-oxo-7,8-dihydropyrido[2,3-d]pyrimidin-2-yl)amino)pyridin-3-yl)methyl)piperazin-1-yl)acetyl)piperidin-4-yl)amino)-N-(6-(dimethylamino)pyridazin-3-yl)-6-(methylamino)nicotinamide] | 50 to 100 nM | < 30% | < 30% |
| CNc1ccc(C(=O)Nc2ccc(N(C)C)nn2)c(NC2CC(C(=O)N3CCC(N4CCN(c5ccc(Nc6ncc7c(C)c(C(C)=O)c(=O)n(C8CCCC8)c7n6)nc5)CC4)C3)C2)n1 (stereo not shown) [CPD-333, 2-((3-(3-(4-(6-((6-acetyl-8-cyclopentyl-5-methyl-7-oxo-7,8-dihydropyrido[2,3-d]pyrimidin-2-yl)amino)pyridin-3-yl)piperazin-1-yl)pyrrolidine-1-carbonyl)cyclobutyl)amino)-N-(6-(dimethylamino)pyridazin-3-yl)-6-(methylamino)nicotinamide] | < 50 nM | < 30% | < 30% |
| CNc1ccc(C(=O)Nc2ccc(F)c(C)n2)c(NC2CC3(CC(NC(=O)CN4CCN(c5ccc(Nc6ncc7c(C)c(C(C)=O)c(=O)n(C8CCCC8)c7n6)nc5)CC4)C3)C2)n1 (stereo not shown) [CPD-221, 2-((6-(2-(4-(6-((6-acetyl-8-cyclopentyl-5-methyl-7-oxo-7,8-dihydropyrido[2,3-d]pyrimidin-2-yl)amino)pyridin-3-yl)piperazin-1-yl)acetamido)spiro[3.3]heptan-2-yl)amino)-N-(5-fluoro-6-methylpyridin-2-yl)-6-(methylamino)nicotinamide] | > 100 nM | 50 to 80% | 50 to 80% |
| CC(=O)c1c(C)c2cnc(Nc3ccc(CN4CCN(CC(=O)N5CCC(Nc6nc(NC(C)C)ccc6C(=O)Nc6ccc(N(C)C)nn6)CC5)CC4)cn3)nc2n(C2CCCC2)c1=O [CPD-358, 2-((1-(2-(4-((6-((6-acetyl-8-cyclopentyl-5-methyl-7-oxo-7,8-dihydropyrido[2,3-d]pyrimidin-2-yl)amino)pyridin-3-yl)methyl)piperazin-1-yl)acetyl)piperidin-4-yl)amino)-N-(6-(dimethylamino)pyridazin-3-yl)-6-(isopropylamino)nicotinamide] | 50 to 100 nM | < 30% | < 30% |
| CC(=O)c1c(C)c2cnc(Nc3ccc(N4CCN(CC(=O)NCC5CC(Nc6nc(NC(C)C)ccc6C(=O)Nc6cc(C)n(C)n6)C5)CC4)cn3)nc2n(C2CCCC2)c1=O (stereo not shown) [CPD-205, 2-((3-((2-(4-(6-((6-acetyl-8-cyclopentyl-5-methyl-7-oxo-7,8-dihydropyrido[2,3-d]pyrimidin-2-yl)amino)pyridin-3-yl)piperazin-1-yl)acetamido)methyl)cyclobutyl)amino)-N-(1,5-dimethyl-1H-pyrazol-3-yl)-6-(isopropylamino)nicotinamide] | < 50 nM | 50 to 80% | 50 to 80% |
| CNc1ccc(C(=O)Nc2ccc(N(C)C)nn2)c(N[C@H]2CC[C@H](NC(=O)CCN3CCN(c4ccc(Nc5ncc6c(C)c(C(C)=O)c(=O)n(C7CCCC7)c6n5)nc4)CC3)CC2)n1 [CPD-223, 2-((trans-4-(3-(4-(6-((6-acetyl-8-cyclopentyl-5-methyl-7-oxo-7,8-dihydropyrido[2,3-d]pyrimidin-2-yl)amino)pyridin-3-yl)piperazin-1-yl)propanamido)cyclohexyl)amino)-N-(6-(dimethylamino)pyridazin-3-yl)-6-(methylamino)nicotinamide] | 50 to 100 nM | 50 to 80% | 50 to 80% |
| CC(=O)c1c(C)c2cnc(Nc3ccc(N4CCN(CC5(C(=O)N6CC7(CC(Nc8nc(NC(C)C)ccc8C(=O)Nc8cn(C)c(C9CC9)n8)C7)C6)CC5)CC4)cn3)nc2n(C2CCCC2)c1=O [CPD-322, 2-((2-(1-((4-(6-((6-acetyl-8-cyclopentyl-5-methyl-7-oxo-7,8-dihydropyrido[2,3-d]pyrimidin-2-yl)amino)pyridin-3-yl)piperazin-1-yl)methyl)cyclopropane-1-carbonyl)-2-azaspiro[3.3]heptan-6-yl)amino)-N-(2-cyclopropyl-1-methyl-1H-imidazol-4-yl)-6-(isopropylamino)nicotinamide] | < 50 nM | < 30% | < 30% |
| CNc1ccc(C(=O)Nc2ccc(N(C)C)nn2)c(NCC2COC3(C2)CN(C(=O)CN2CCN(c4ccc(Nc5ncc6c(C)c(C(C)=O)c(=O)n(C7CCCC7)c6n5)nc4)CC2)C3)n1 (stereo not shown) [CPD-354, 2-(((2-(2-(4-(6-((6-acetyl-8-cyclopentyl-5-methyl-7-oxo-7,8-dihydropyrido[2,3-d]pyrimidin-2-yl)amino)pyridin-3-yl)piperazin-1-yl)acetyl)-5-oxa-2-azaspiro[3.4]octan-7-yl)methyl)amino)-N-(6-(dimethylamino)pyridazin-3-yl)-6-(methylamino)nicotinamide] | > 100 nM | – | – |
| CNc1ccc(C(=O)Nc2cn(C)c(C(C)O)n2)c(NC2CC3(CC(NC(=O)CN4CCN(c5ccc(Nc6ncc7c(C)c(C(C)=O)c(=O)n(C8CCCC8)c7n6)nc5)CC4)C3)C2)n1 (stereo not shown) [CPD-330, 2-((6-(2-(4-(6-((6-acetyl-8-cyclopentyl-5-methyl-7-oxo-7,8-dihydropyrido[2,3-d]pyrimidin-2-yl)amino)pyridin-3-yl)piperazin-1-yl)acetamido)spiro[3.3]heptan-2-yl)amino)-N-(2-(1-hydroxyethyl)-1-methyl-1H-imidazol-4-yl)-6-(methylamino)nicotinamide] | > 100 nM | – | – |
| CC(=O)c1c(C)c2cnc(Nc3ccc(N4CCC(NCC(=O)N5CC(Nc6nc(NC(C)C)ccc6C(=O)Nc6ccc(N(C)C)nn6)C5)CC4)cn3)nc2n(C2CCCC2)c1=O [CPD-356, 2-((1-((1-(6-((6-acetyl-8-cyclopentyl-5-methyl-7-oxo-7,8-dihydropyrido[2,3-d]pyrimidin-2-yl)amino)pyridin-3-yl)piperidin-4-yl)glycyl)azetidin-3-yl)amino)-N-(6-(dimethylamino)pyridazin-3-yl)-6-(isopropylamino)nicotinamide] | 50 to 100 nM | – | – |
| CC(=O)c1c(C)c2cnc(Nc3ccc(N4CCN(CC(=O)NC5CC6(C5)CC(Nc5nc(OC(C)C)ccc5C(=O)Nc5cn(C)c(C7CC7)n5)C6)CC4)cn3)nc2n(C2CCCC2)c1=O (stereo not shown) [CPD-292, 2-((6-(2-(4-(6-((6-acetyl-8-cyclopentyl-5-methyl-7-oxo-7,8-dihydropyrido[2,3-d]pyrimidin-2-yl)amino)pyridin-3-yl)piperazin-1-yl)acetamido)spiro[3.3]heptan-2-yl)amino)-N-(2-cyclopropyl-1-methyl-1H-imidazol-4-yl)-6-isopropoxynicotinamide] | > 100 nM | – | – |
| CC(=O)c1c(C)c2cnc(Nc3ccc(N4CCC5(CC4)CC5C(=O)N4CCC(Nc5nc(NC(C)C)ccc5C(=O)Nc5cc(C)n(C)n5)CC4)cn3)nc2n(C2CCCC2)c1=O (stereo not shown) [CPD-408, 2-((1-(6-(6-((6-acetyl-8-cyclopentyl-5-methyl-7-oxo-7,8-dihydropyrido[2,3-d]pyrimidin-2-yl)amino)pyridin-3-yl)-6-azaspiro[2.5]octane-1-carbonyl)piperidin-4-yl)amino)-N-(1,5-dimethyl-1H-pyrazol-3-yl)-6-(isopropylamino)nicotinamide] | < 50 nM | – | – |
| CC(=O)c1c(C)c2cnc(Nc3ccc(N4CCN(C(CC(=O)N5CC6(CC(Nc7nc(NC(C)C)ccc7C(=O)Nc7cn(C)c(C8CC8)n7)C6)C5)C(F)(F)F)CC4)cn3)nc2n(C2CCCC2)c1=O (stereo not shown) [CPD-436, 2-((2-(3-(4-(6-((6-acetyl-8-cyclopentyl-5-methyl-7-oxo-7,8-dihydropyrido[2,3-d]pyrimidin-2-yl)amino)pyridin-3-yl)piperazin-1-yl)-4,4,4-trifluorobutanoyl)-2-azaspiro[3.3]heptan-6-yl)amino)-N-(2-cyclopropyl-1-methyl-1H-imidazol-4-yl)-6-(isopropylamino)nicotinamide] | < 50 nM | – | – |
| [2H]C([2H])([2H])Nc1ccc(C(=O)Nc2ccc(N(C)C)nn2)c(NC2CC(CNC(=O)CN3CCN(c4ccc(Nc5ncc6c(C)c(C(C)=O)c(=O)n(C7CCCC7)c6n5)nc4)CC3)C2)n1 (stereo not shown) [CPD-343, 2-((3-((2-(4-(6-((6-acetyl-8-cyclopentyl-5-methyl-7-oxo-7,8-dihydropyrido[2,3-d]pyrimidin-2-yl)amino)pyridin-3-yl)piperazin-1-yl)acetamido)methyl)cyclobutyl)amino)-N-(6-(dimethylamino)pyridazin-3-yl)-6-((methyl-d3)amino)nicotinamide] | 50 to 100 nM | – | – |
